Data as given in paper PMC12649549, “Sequence Permutation Generated Lysine and Tryptophan-Rich Antimicrobial Peptides with Enhanced Therapeutic Index” (Antibiotics, 2025).
Read-outs that look alike come from different tables or passages of the source.

Assays:
Gram-negative bacteria = experiment: Geometric mean MIC and therapeutic index, Gram-negative bacteria; format: cell-based; settings: Gram-negative bacteria
Experimental: In this study, we aimed to investigate the potential of W5K series peptides for therapeutic use. To evaluate their efficacy for antibacterial therapy, we used the Therapeutic Index (TI) as a measure of their cell selectivity. The TI was calculated as the ratio of the concentration causing 10% hemolysis of human red blood cells (HC10) to the geometric mean minimum inhibitory concentration (GM) of the peptides against both Gram-negative and Gram-positive bacteria. This parameter was used to quantitatively assess the balance between antibacterial potency and cytotoxicity among the W5K derivatives.
(§1) The antibacterial activities of the peptides in Müller-Hinton (MH) broth and modified LYM broth were determined using the standard broth microdilution method as per Clinical and Laboratory Standards Institute (CLSI) guidelines. The LYM broth was prepared with specific components and adjusted to different conditions, including varying concentrations of NaCl and MgCl2, and different pH levels. To prepare the LYM broth, 5.4 mM KCl, 5.6 mM Na2HPO4, 0.5 mM MgSO4, and 1.0 mM sodium citrate were added. Additionally, 0.4 mg of ZnCl2, 2.0 mg of FeCl3·6H2O, 0.1 mg of CuSO4·5H2O, 0.1 mg of MnSO4·H2O, 0.1 mg of Na2B4O7∙10H2O, 700 mg of amino acid mixtures without tryptophan (Takara Bio Inc., San Jose, CA, USA), and 20 mg of L-tryptophan were added per liter of medium. The pH was adjusted to 7.4, and a vitamin mixture (100X, Sigma) and glucose concentration of 2% were added. For different conditions of LYM broth, NaCl concentrations of 300, 200, 150, and 50 mM, MgCl2 concentrations of 2.5, 1.5, and 0.5 mM, and pH levels of 6.5, 5.5, and 4.5 were adjusted. Bacterial strains were incubated in MH broth overnight, regrown, and diluted to a final concentration of 5 × 10^5 CFU/mL. Peptides were added to each well at final concentrations of 50, 25, 12.5, 6.25, 3.13, 1.56, and 0.78 µg/mL, and 99 µL of diluted microbes was loaded into each well of a polypropylene 96-well plate. […] The Morpheus HeatMap software (https://software.broadinstitute.org/morpheus/) was used to display MIC values on a color scale. All experiments were independently repeated three times.

S. aureus ATCC 33591 = test system: S. aureus ATCC 33591
Experimental: (§2) The antibacterial and salt-resistant activity of the peptides was tested using Escherichia coli (ATCC 25922), Pseudomonas aeruginosa Migula (ATCC 27853), Acinetobacter sp. (BCRC number 14B0091, BCRC number 14B0097, and BCRC number 14B0100), and Staphylococcus aureus sp. strains (ATCC 25923, ATCC 33591, ATCC 33592, ATCC 33593, and ATCC 6538). All bacteria were obtained from the Food Industry Research and Development Institute (Hsinchu, Taiwan) and cultured in sterilized Müller-Hinton (MH) broth at 37 °C and 200 rpm for 8 h. The inoculum concentrations were determined by measuring the optical density at 600 nm (OD 600 = 1, approximately 10^8 CFU/mL) using an Ultrospec 2100 pro UV-Visible spectrophotometer (Biochrom Ltd., Cambridge, UK) after 8 h of culture.
as §1

S. aureus ATCC 6538 = test system: S. aureus ATCC 6538
Experimental: as §2, §1

[1] = test system: A. baumannii 14B00100 (Acinetobacter sp., BCRC number 14B0100)
Experimental: as §2, §1

[2] = test system: Escherichia coli (ATCC 25922)
Experimental: as §2, §1

[3] = test system: A. baumannii 14B0091 (Acinetobacter sp., BCRC number 14B0091)
Experimental: as §2, §1

S. aureus ATCC 25923 = test system: S. aureus ATCC 25923
Experimental: as §2, §1

[4] = LYM broth, 0 mM NaCl, 16 h, 37 °C
[5] = LYM broth, 50 mM NaCl, 16 h, 37 °C
[6] = LYM broth, 100 mM NaCl, 16 h, 37 °C
[7] = LYM broth, 200 mM (NaCl), 16 h, 37 °C
[8] = LYM broth, 300 mM (NaCl), 16 h, 37 °C
[9] = MH broth, 5 × 10^5 CFU/mL, 16 h, 37 °C, repeated three times

Ac-KWLKWLAKKKKWR-NH2 [Peptide W5K04]
GM G− (geometric mean of the MIC values) (Gram-negative bacteria; MH broth, MIC >50 µg/mL counted as 100 µg/mL): 18.9 µg/mL | Therapeutic Index (TI) G− (Gram-negative bacteria; HC10/GM): 5.7 | MIC (S. aureus ATCC 33591; [4]): 25 µg/mL | MIC (S. aureus ATCC 33591; LYM broth, 0.5 mM MgCl2): 25 µg/mL | MIC (S. aureus ATCC 33591; LYM broth, 1.5 mM MgCl2): 25 µg/mL | MIC (S. aureus ATCC 33591; LYM broth, 2.5 mM MgCl2): 50 µg/mL | MIC (S. aureus ATCC 33591; [5]): 50 µg/mL | MIC (S. aureus ATCC 33591; [6]): 50 µg/mL | MIC (S. aureus ATCC 33591; [7]): >50 µg/mL | MIC (S. aureus ATCC 33591; [8]): >50 µg/mL | MIC (S. aureus ATCC 33591; LYM broth, pH 4.5): 25 µg/mL | MIC (S. aureus ATCC 33591; LYM broth, pH 5.5): 12.5 µg/mL | MIC (S. aureus ATCC 33591; LYM broth, pH 6.5): 12.5 µg/mL | MIC (S. aureus ATCC 33591; [9]): >50 µg/mL | MIC (S. aureus ATCC 6538; [4]): 3.13 µg/mL | MIC (S. aureus ATCC 6538; LYM broth, 0.5 mM MgCl2): 3.13 µg/mL | MIC (S. aureus ATCC 6538; LYM broth, 1.5 mM MgCl2): 6.25 µg/mL | MIC (S. aureus ATCC 6538; LYM broth, 2.5 mM MgCl2): 6.25 µg/mL | MIC (S. aureus ATCC 6538; [5]): 6.25 µg/mL | MIC (S. aureus ATCC 6538; [6]): 25 µg/mL | MIC (S. aureus ATCC 6538; [7]): 50 µg/mL | MIC (S. aureus ATCC 6538; [8]): >50 µg/mL | MIC (S. aureus ATCC 6538; LYM broth, pH 4.5): 6.25 µg/mL | MIC (S. aureus ATCC 6538; LYM broth, pH 5.5): 6.25 µg/mL | MIC (S. aureus ATCC 6538; LYM broth, pH 6.5): 3.13 µg/mL | MIC (S. aureus ATCC 6538; [9]): 25 µg/mL | MIC [1, 4]: 1.56 µg/mL | MIC ([1]; LYM broth, 0.5 mM MgCl2): 1.56 µg/mL | MIC ([1]; LYM broth, 1.5 mM MgCl2): 3.13 µg/mL | MIC ([1]; LYM broth, 2.5 mM MgCl2): 3.13 µg/mL | MIC [1, 5]: 1.56 µg/mL | MIC [1, 6]: 3.13 µg/mL | MIC [1, 7]: 12.5 µg/mL | MIC [1, 8]: 25 µg/mL | MIC ([1]; LYM broth, pH 4.5): 1.56 µg/mL | MIC ([1]; LYM broth, pH 5.5): 1.56 µg/mL | MIC ([1]; LYM broth, pH 6.5): 1.56 µg/mL | MIC [1, 9]: 12.5 µg/mL | MIC [2, 4]: 6.25 µg/mL | MIC ([2]; LYM broth, 0.5 mM MgCl2): 12.5 µg/mL | MIC ([2]; LYM broth, 1.5 mM MgCl2): 12.5 µg/mL | MIC ([2]; LYM broth, 2.5 mM MgCl2): 12.5 µg/mL | MIC [2, 5]: 25 µg/mL | MIC [2, 6]: 50 µg/mL | MIC [2, 7]: >50 µg/mL | MIC [2, 8]: >50 µg/mL | MIC ([2]; LYM broth, pH 4.5): 6.25 µg/mL | MIC ([2]; LYM broth, pH 5.5): 3.13 µg/mL | MIC ([2]; LYM broth, pH 6.5): 3.13 µg/mL | MIC [2, 9]: 25 µg/mL | MIC [3, 4]: 1.56 µg/mL | MIC ([3]; LYM broth, 0.5 mM MgCl2): 1.56 µg/mL | MIC ([3]; LYM broth, 1.5 mM MgCl2): 3.13 µg/mL | MIC ([3]; LYM broth, 2.5 mM MgCl2): 3.13 µg/mL | MIC [3, 5]: 3.13 µg/mL | MIC [3, 6]: 3.13 µg/mL | MIC [3, 7]: 12.5 µg/mL | MIC [3, 8]: 50 µg/mL | MIC ([3]; LYM broth, pH 4.5): 3.13 µg/mL | MIC ([3]; LYM broth, pH 5.5): 3.13 µg/mL | MIC ([3]; LYM broth, pH 6.5): 1.56 µg/mL | MIC [3, 9]: 12.5 µg/mL | MIC (S. aureus ATCC 25923; [4]): 6.25 µg/mL | MIC (S. aureus ATCC 25923; LYM broth, 0.5 mM MgCl2): 6.25 µg/mL | MIC (S. aureus ATCC 25923; LYM broth, 1.5 mM MgCl2): 6.25 µg/mL | MIC (S. aureus ATCC 25923; LYM broth, 2.5 mM MgCl2): 6.25 µg/mL | MIC (S. aureus ATCC 25923; [5]): 12.5 µg/mL | MIC (S. aureus ATCC 25923; [6]): 25 µg/mL | MIC (S. aureus ATCC 25923; [7]): >50 µg/mL | MIC (S. aureus ATCC 25923; [8]): >50 µg/mL | MIC (S. aureus ATCC 25923; LYM broth, pH 4.5): 12.5 µg/mL | MIC (S. aureus ATCC 25923; LYM broth, pH 5.5): 6.25 µg/mL | MIC (S. aureus ATCC 25923; LYM broth, pH 6.5): 3.13 µg/mL | MIC (S. aureus ATCC 25923; [9]): 50 µg/mL
